ChEMBL document CHEMBL3885861, “Open TG-GATES”

Species: Rattus norvegicus
Assay: Open TG-GATES - Regimen: Daily Repeat
Format: toxicity, organism-based, Sprague-Dawley
Parameters: regimen Daily Repeat, gender Male, age 6 weeks
Details: in vivo, po, route gavage; for gamma-GTP / ALP / ALT / AST / BUN / CRE / DBIL / GLC / IP / K / LDH / Na / PL / RALB / TBIL / TC / TG / TP: tissue Plasma; for APTT / Bas / Eos / Fbg / Hb / Ht / Lym / MCH / MCHC / MCV / Mono / Neu / Plat / RBC / Ret / WBC: tissue Blood; for KIDNEY_L / KIDNEY_R / KIDNEY_TOTAL: tissue Kidney
[1] = 10 mg/kg, 72 h, dose level Low, time 3 day
[2] = 10 mg/kg, […], dose level Low, time 7 day
[3] = 10 mg/kg, […], dose level Low, time 14 day
[4] = 10 mg/kg, […], dose level Low, time 28 day

Compound CN(C)CCC=C1c2ccccc2COc2ccccc21 [DOXEPIN] has a gamma-GTP (0 mg/kg, […], dose level Control, time 28 day) of 1 IU/L, a TERMINAL_BW [1] of 218 g and an APTT [1] of 16.2 s. It also gave a Bas [1] of 0%, an Eos [1] of 1% and a Fbg [1] of 283.2 mg/dL. For the same compound, the Hb [1] was 13.4 g/dL, the Ht [1] was 39.3% and the Lym [1] was 78%. It also gave an MCH [1] of 21.5 pg, an MCHC [1] of 34.2% and an MCV [1] of 62.8 fL. It also gave a Mono [1] of 2.8%, a Neu [1] of 18% and a Plat [1] of 107 x10_4/uL. The RBC [1] was 625.6 x10_4/ul, the Ret [1] was 7.4% and the WBC [1] was 67.2 x10_2/uL. For the same compound, the KIDNEY_L [1] was 0.9 g, the KIDNEY_R [1] was 0.9 g and the KIDNEY_TOTAL [1] was 1.9 g. It also gave an ALP [1] of 1531.8 IU/L, an ALT [1] of 42.2 IU/L and an AST [1] of 70.8 IU/L. For the same compound, the BUN [1] was 15.4 mg/dL, the CRE [1] was 0.2 mg/dL and the DBIL [1] was 0.024 mg/dL. It also gave a GLC [1] of 191 mg/dL, an IP [1] of 7.7 mg/dL and a K [1] of 4.3 meq/L. It also gave an LDH [1] of 74.2 IU/L, a Na [1] of 141.6 meq/L and a PL [1] of 156.8 mg/dL. The RALB [1] was 2.7 g/dL, the TBIL [1] was 0.044 mg/dL and the TC [1] was 85.8 mg/dL. It also gave a TG [1] of 100.8 mg/dL, a TP [1] of 5.8 g/dL and a gamma-GTP [1] of 1.4 IU/L. It also gave a TERMINAL_BW [2] of 254.8 g, a TERMINAL_BW [3] of 315.1 g and a TERMINAL_BW [4] of 390 g. The APTT [2] was 16.3 s, the Bas [2] was 0% and the Eos [2] was 1%. For the same compound, the Fbg [2] was 283.4 mg/dL, the Hb [2] was 13.5 g/dL and the Ht [2] was 38.8%. For the same compound, the Lym [2] was 79.8%, the MCH [2] was 21.5 pg and the MCHC [2] was 34.8%. The MCV [2] was 61.8 fL, the Mono [2] was 3% and the Neu [2] was 15.6%. It also gave a Plat [2] of 115.8 x10_4/uL, an RBC [2] of 627.6 x10_4/ul and a Ret [2] of 6%. For the same compound, the WBC [2] was 88.3 x10_2/uL, the APTT [3] was 16.8 s and the Bas [3] was 0%. The Eos [3] was 1.2%, the Fbg [3] was 296.8 mg/dL and the Hb [3] was 14.1 g/dL. It also gave a Ht [3] of 40.5%, a Lym [3] of 75.4% and an MCH [3] of 21.5 pg. For the same compound, the MCHC [3] was 34.7%, the MCV [3] was 61.8 fL and the Mono [3] was 3%. The Neu [3] was 20%, the Plat [3] was 106.2 x10_4/uL and the RBC [3] was 656.4 x10_4/ul. The Ret [3] was 4.7%, the WBC [3] was 76.1 x10_2/uL and the APTT [4] was 16.2 s. The Bas [4] was 0%, the Eos [4] was 1.4% and the Fbg [4] was 283.8 mg/dL. For the same compound, the Hb [4] was 14.6 g/dL, the Ht [4] was 41.3% and the Lym [4] was 81.4%. The MCH [4] was 19.8 pg, the MCHC [4] was 35.4% and the MCV [4] was 56 fL. The Mono [4] was 2%, the Neu [4] was 14.6% and the Plat [4] was 109.1 x10_4/uL. It also gave an RBC [4] of 737.6 x10_4/ul, a Ret [4] of 2.4% and a WBC [4] of 71.4 x10_2/uL. For the same compound, the KIDNEY_L [2] was 1.1 g, the KIDNEY_R [2] was 1.1 g and the KIDNEY_TOTAL [2] was 2.2 g. For the same compound, the KIDNEY_L [3] was 1.2 g, the KIDNEY_R [3] was 1.2 g and the KIDNEY_TOTAL [3] was 2.4 g. For the same compound, the KIDNEY_L [4] was 1.3 g, the KIDNEY_R [4] was 1.3 g and the KIDNEY_TOTAL [4] was 2.6 g. The ALP [2] was 1775.6 IU/L, the ALT [2] was 51.6 IU/L and the AST [2] was 84.2 IU/L. For the same compound, the BUN [2] was 19.2 mg/dL, the CRE [2] was 0.2 mg/dL and the DBIL [2] was 0.024 mg/dL. It also gave a GLC [2] of 191.2 mg/dL, an IP [2] of 7.5 mg/dL and a K [2] of 4.3 meq/L. The LDH [2] was 148.2 IU/L, the Na [2] was 142 meq/L and the PL [2] was 156 mg/dL. It also gave an RALB [2] of 2.6 g/dL, a TBIL [2] of 0.04 mg/dL and a TC [2] of 81 mg/dL. It also gave a TG [2] of 135.2 mg/dL, a TP [2] of 5.8 g/dL and a gamma-GTP [2] of 1 IU/L. For the same compound, the ALP [3] was 1686.4 IU/L, the ALT [3] was 42.2 IU/L and the AST [3] was 67.6 IU/L. The BUN [3] was 18.4 mg/dL, the CRE [3] was 0.2 mg/dL and the DBIL [3] was 0.012 mg/dL. The GLC [3] was 193.4 mg/dL, the IP [3] was 7.4 mg/dL and the K [3] was 4.4 meq/L. The LDH [3] was 70.2 IU/L, the Na [3] was 142.6 meq/L and the PL [3] was 150.2 mg/dL. The RALB [3] was 2.7 g/dL, the TBIL [3] was 0.024 mg/dL and the TC [3] was 73 mg/dL. For the same compound, the TP [3] was 6 g/dL, the gamma-GTP [3] was 1.2 IU/L and the ALP [4] was 1247.4 IU/L. For the same compound, the ALT [4] was 37.8 IU/L, the AST [4] was 62 IU/L and the BUN [4] was 16.4 mg/dL. It also gave a CRE [4] of 0.2 mg/dL, a DBIL [4] of 0.02 mg/dL and a GLC [4] of 173.6 mg/dL. It also gave an IP [4] of 5.6 mg/dL, a K [4] of 4 meq/L and an LDH [4] of 53 IU/L. For the same compound, the Na [4] was 144 meq/L, the PL [4] was 147.6 mg/dL and the RALB [4] was 2.8 g/dL. For the same compound, the TBIL [4] was 0.03 mg/dL, the TC [4] was 74 mg/dL and the TG [4] was 154.8 mg/dL. It also gave a TP [4] of 6.3 g/dL and a gamma-GTP [4] of 1.2 IU/L.
